Reference: the NIST ThermoML archive (doi:10.1021/je800404f)
± gives the expanded uncertainty stated by the source.

Assay: refractive index (Na D-line) (dimensionless)
Conditions: 295.1 K; 101.33 kPa; Liquid; Standard Abbe refractometry

Row | Compound | refractive index
1 | O [water] | 1.333 ± 0.0024
2 | CCCCCCCCCO [nonan-1-ol] | 1.4322 ± 0.0024
3 | CCCCCCC(=O)O [heptanoic acid] | 1.4175 ± 0.0024
4 | CC#N [acetonitrile] | 1.3441 ± 0.0024
